Experimental data reported in patent publication US7649002B2, “(3,5-dimethylpiperidin-1yl)(4-phenylpyrrolidin-3-yl)methanone derivatives as MCR4 agonists” (Pfizer Inc, priority 2004, dated 2010).

Tests used:
[1] = system: spontaneous penile erection in the conscious rat; test: Spontaneous penile erection in the conscious rat (telemetric intracavernosal pressure); type: in vivo; details: for maximum effective dose: s.c.
Protocol: MCR4 in vivo data for the compound of Example 1 was assessed by selective activation of melanocortin MCR4 receptors using the methodology assessing spontaneous penile erection in the conscious rat.
Erectile responses were recorded by measuring intracavernosal pressure using a surgically implanted telemetric device (TA11PA-C40, 8 mm catheter, modified 3 mm tip, available from Data Sciences International Inc.). An increase in intracavernosal pressure is indicative of penile erection, as an increase in intracavernosal pressure is an essential hemodynamic event during the initiation and maintenance of penile erection. The specific details of the surgical procedures, data acquisition and analysis used herein to measure increases in intracavernosal pressure can be found in detail in Bernabe J., Rampin O., Sachs B. D., Giuliano F., “Intracavernous pressure during erection in rats: an integrative approach based on telemetric recording”, Am. J. Physiol. 1999 February; 276 (2 Pt 2):R441-9.
The test animals (rats) (during the dark cycle) were habituated for 18 hours before baseline assessment of erectile function. Prior to administration of the test agent the baseline erectile activity (B) was assessed for the vehicle for 10 minutes using telemetric recording of intracavernosal pressure. Following subcutaneous administration of the compound of Example 1 (in the same vehicle), penile erections were assessed (using telemetric recording of intracavernosal pressure) over 10 minute periods, at intervals of 30, 60, and 90 minutes post dosage.

human MCR1 receptor = biological target: T1, human MCR1 receptor (Homo sapiens, UniProt Q01726); test: MCR1 standard functional assay (Protocol A): cAMP AlphaScreen in HEK cells; type: cell-based; details: for EC50: Protocol A
T1 construct: expressed in transfected cells
Protocol: (§1) Stimulation of adenylate cyclase following receptor activation is a widely used measure of functional activity for a number of receptor systems. The functional assay to measure cyclic AMP (cAMP) utilises human embryonic kidney (HEK) cells that stably express the human melanocortin MCR1, MCR3 or MCR4 receptor. Activation of MCR1, MCR3 or MCR4 receptors stimulates adenylate cyclase, generating cAMP, which is measured using AlphaScreen™ (PerkinElmer assay kits.
(§2) The AlphaScreen™ cAMP assay kit consists of ‘donor beads’, ‘acceptor beads’, and biotinylated cAMP which links the different beads together. Excitation of this linked complex at […] in the Fusion™-α microplate analyser results in light emission between […].
(§3) (i) MCR1. MCR3 and MCR4 Standard Functional Assay Methodology [Assay Protocol A, B AND C Respectively]
(§4) Determination of activity against the human MCR1, MCR3 and MCR4 receptor subtypes was carried out for compounds according to the present invention using three immortalised human embryonic kidney (HEK) cell lines that had been biologically engineered to express the human melanocortin MCR1, MCR3 or MCR4 receptor subtypes. These cell lines were engineered using protocols akin to those outlined by Gouarderes et al (Gouarderes, C., (2002) Neuroscience, 115(2); 349-361).
(§5) Such-compound-induced activation of these MCR1, MCR3 or MCR4 receptors lead to the stimulation of the cellular enzyme adenylate cyclase, which in turn lead to the cellular generation, and intra-cellular accumulation, of cyclic adenosine monophosphate (cAMP). […] Intracellular levels of cAMP were quantified using the commercially available AlphaScreen™ assay kits from PerkinElmer. A detailed assay protocol and an explanation of the concept underlying this kit is available through the PerkinElmer website (www.perkinelmer.com). The protocol listed below provides a summary this information.
(§6) The quantity of intracellular cAMP produced by compound-induced activation of the MCR1, MCR3 and MCR4 receptors in these three cell lines was measured using a Fusion™-α microplate analyser set to stimulate at a wavelength of 680 nm and to measure the energy emitted at wave lengths between […]. Compound-induced increases in MCR1, MCR3 or MCR4 receptor activation were subsequently quantified as a decrease in the quantity of light emitted at wavelengths between […]. Data analysis was subsequently performed using a curve-fitting program and the apparent potency of the test compound (expressed as an EC50 and defined as the effective compound concentration that elicited 50% of the maximum compound-induced response) extrapolated from the fitted curve.
(§7) Stimulation buffer (as per AlphaScreen™ protocol): HBSS supplemented with 0.5 mM IBMX, 5 mM HEPES, 0.1% (w/v) BSA and 10 mM MgCl2.
(§8) Lysis buffer (as per AlphaScreen™ protocol): 5 mM HEPES solution supplemented with 0.1% (w/v) BSA and 0.3% (v/v) Tween-20.
(§9) Detection mix (as per AlphaScreen™ protocol): Lysis buffer supplemented with the biotinylated cAMP (10 nM) and Donor beads (10 μg/ml) as supplied in the AlphaScreenT cAMP assay kit.
(§10) For the MCR1, MCR3 and MCR4 standard functional assay methodologies compounds were initially dissolved in DMSO to give a compound concentration of 4 mM and then further diluted for the assay in stimulation buffer to give actual concentrations 2-fold greater than that desired as the final assay concentration.
(§11) The three HEK cell lines, as detailed hereinbefore, expressing the human MCR1, MCR3 or MCR4 receptor subtypes were grown in T225 vent cap flasks containing 50 ml of growth medium (DMEM supplemented with 10% (v/v) FCS, 2 mM L-Glutamine, 25 mM HEPES and 1.0 mg/ml Geneticin) and maintained in a cell incubator at a temperature of 37° C. and in an environment containing 5% CO2. Cells were harvested when they reached 80-90% confluency by first removing the existing growth medium and then washing with PBS that had been pre-warmed to a temperature of 37° C. […]

human MCR3 receptor = biological target: T2, human MCR3 receptor (Homo sapiens, UniProt P41968); test: MCR3 standard functional assay (Protocol B): cAMP AlphaScreen in HEK cells; type: cell-based; details: Table 5
T2 construct: expressed in transfected cells
Protocol: as §1, §2, §3, §4, §5, §6, §7, §8, §9, §10, §11

human MCR4 receptor = biological target: T3, human MCR4 receptor (Homo sapiens, UniProt P32245); test: MCR4 standard functional assay (Protocol C): cAMP AlphaScreen in HEK cells; type: cell-based; details: Table 5
T3 construct: expressed in transfected cells
Protocol: as §1, §2, §3, §4, §5, §6
Stimulation buffer (as per AlphaScreen™ protocol): HBSS supplemented with 0.5 mM IBMX, 5 mM HEPES, 0.1% (w/v) BSA and 10 mM MgCl2. […]

T1 sequence (Q01726 whole entry): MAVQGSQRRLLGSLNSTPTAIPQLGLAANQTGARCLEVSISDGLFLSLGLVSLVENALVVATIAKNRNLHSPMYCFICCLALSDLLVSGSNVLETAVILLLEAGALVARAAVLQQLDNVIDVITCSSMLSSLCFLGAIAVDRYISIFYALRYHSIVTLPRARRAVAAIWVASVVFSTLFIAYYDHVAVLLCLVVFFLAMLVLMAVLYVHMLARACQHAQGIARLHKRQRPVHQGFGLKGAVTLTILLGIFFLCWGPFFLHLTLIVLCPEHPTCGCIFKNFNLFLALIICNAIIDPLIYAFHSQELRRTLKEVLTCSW
T2 sequence (P41968 whole entry): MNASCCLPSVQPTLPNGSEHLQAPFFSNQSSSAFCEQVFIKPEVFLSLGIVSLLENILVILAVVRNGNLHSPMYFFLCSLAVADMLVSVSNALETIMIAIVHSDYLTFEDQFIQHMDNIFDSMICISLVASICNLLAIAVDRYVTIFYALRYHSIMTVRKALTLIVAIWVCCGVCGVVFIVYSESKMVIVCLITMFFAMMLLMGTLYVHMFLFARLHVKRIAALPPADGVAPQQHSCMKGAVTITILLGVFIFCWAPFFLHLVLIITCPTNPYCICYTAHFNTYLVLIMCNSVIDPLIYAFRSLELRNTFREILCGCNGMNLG
T3 sequence (P32245 whole entry): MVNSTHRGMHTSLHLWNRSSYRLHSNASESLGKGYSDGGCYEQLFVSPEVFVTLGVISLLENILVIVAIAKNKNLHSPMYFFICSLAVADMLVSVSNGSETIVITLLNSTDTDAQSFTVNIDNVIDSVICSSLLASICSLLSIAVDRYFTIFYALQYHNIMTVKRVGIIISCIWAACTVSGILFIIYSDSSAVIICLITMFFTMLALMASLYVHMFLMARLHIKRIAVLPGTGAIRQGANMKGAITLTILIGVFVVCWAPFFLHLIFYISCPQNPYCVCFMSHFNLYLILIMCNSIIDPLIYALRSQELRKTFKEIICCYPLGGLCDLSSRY

SMILES	Selectivity MCR1/MCR4 (human MCR1 receptor; Table 6, MCR4 by Protocol E)	EC50 (human MCR1 receptor; Table 6) [nM]	other results
C[C@@H]1CN(C(=O)[C@@H]2CN(C(C)(C)C)C[C@H]2c2ccc(F)cc2F)C[C@H](C)[C@@]1(O)c1ccccc1 [Example 1, (3R,4R,5S)-1-{[(3S,4R)-1-tert-Butyl-4-(24-difluorophenyl)pyrrolidin-3-yl]carbonyl}-3,5-dimethyl-4-phenylpiperidin-4-ol]	125	–	maximum effective dose ([1]; additional, more detailed study, FIG. 2, conscious rat): 10 µg/kg; erectile activity (number of erections over a 10 minute period) versus baseline (treatment vehicle) ([1]; additional, more detailed study, FIG. 2, starting 30 minutes post dosage, 1, 10 and 100 μg/kg s.c.): increases the erectile activity versus baseline erectile activity; number of penile erections ([1]; conscious rat, subcutaneously (s.c.)): dose dependent increase in the number of penile erections; maximum effective dose ([1]; preliminary study, FIG. 1, conscious rat): 1 µg/kg; erectile activity (number of erections over a 10 minute period) versus baseline ([1]; preliminary study, FIG. 1, starting 60 minutes post dosage, 1, 10 and 100 μg/kg s.c.): increases the erectile activity versus baseline erectile activity; Selectivity MCR1/MCR4 (human MCR1 receptor; Table 5, MCR4 by Protocol C): 324; EC50 (human MCR1 receptor; Table 5): 8100 nM; Selectivity MCR3/MCR4 (human MCR3 receptor; MCR4 by Protocol C): 56; EC50 (human MCR3 receptor; Protocol B): 1390 nM; EC50 (human MCR4 receptor): 25 nM
C[C@@H]1CN(C(=O)[C@@H]2CN(C(C)(C)C)C[C@H]2c2ccc(F)cc2F)C[C@H](C)[C@@]1(O)c1ccccc1.Cl [Example 5, (3R,4R,5S)-1-{[(3S,4R)-1-tert-Butyl-4-(2,4-difluorophenyl)pyrrolidin-3-yl]carbonyl}-3,5-dimethyl-4-phenylpiperidin-4-ol hydrochloride]	125	1200	–
CC(C)N1C[C@@H](C(=O)N2C[C@@H](C)[C@](O)(c3ccccc3)[C@@H](C)C2)[C@H](c2ccc(F)cc2F)C1.Cl [Example 6, (3R,4R,5S)-1-{[(3S,4R)-4-(2,4-Difluorophenyl)-1-isopropylpyrrolidin-3-yl]carbonyl}-3,5-dimethyl-4-phenylpiperidin-4-ol hydrochloride]	28	541	–
C[C@@H]1CN(C(=O)[C@@H]2CNC[C@H]2c2ccc(F)cc2F)C[C@H](C)[C@@]1(O)c1ccc(F)cc1.Cl [Example 12, (3R,4R,5S)-1-{[(3S,4R)-4-(2,4-difluorophenyl)pyrrolidin-3-yl]carbonyl}-4-(4-fluorophenyl)-3,5-dimethylpiperidin-4-ol hydrochloride]	9	667	–
C[C@@H]1CN(C(=O)[C@@H]2CN(C(C)(C)C)C[C@H]2c2ccc(F)cc2F)C[C@H](C)[C@@]1(O)c1ccc(Cl)cc1.Cl [Example 13, (3R,4R,5S)-1-{[(3S,4R)-1-tert-butyl-4-(2,4-difluorophenyl)pyrrolidin-3-yl]carbonyl}-4-(4-chlorophenyl)-3,5-dimethylpiperidin-4-ol hydrochloride]	311	8400	–
C[C@@H]1CN(C(=O)[C@@H]2CN(c3ccccn3)C[C@H]2c2ccc(F)cc2F)C[C@H](C)[C@@]1(O)c1ccccc1.Cl [Example 31, (3R,4R,5S)-1-{[(3S,4R)-4-(2,4-difluorophenyl)-1-pyridin-2-ylpyrrolidin-3-yl]carbonyl}-3,5-dimethyl-4-phenylpiperidin-4-ol hydrochloride]	2969	10700	–
C[C@@H]1CN(C(=O)[C@@H]2CN(c3cccnn3)C[C@H]2c2ccc(F)cc2F)C[C@H](C)[C@@]1(O)c1ccccc1.Cl [Example 35, (3R,4R,5S)-1-{[(3S,4R)-4-(2,4-difluorophenyl)-1-pyridazin-3-ylpyrrolidin-3-yl]carbonyl}-3,5-dimethyl-4-phenylpiperidin-4-ol hydrochloride]	847	1270	–
